According to paper PMC10762078, “Role of UPF1-LIN28A interaction during early differentiation of pluripotent stem cells” (Nature Communications, 2024):
Ends that are not written are not given here.

Key:
[1] = system: CHA15 cells transcriptome / NMD targets; assay: RNA-seq of CPP-peptide-treated CHA15 cells (NMD targets, SDGs; Fig. 6a, b, d; Supplementary Fig. 6a; Supplementary Data 2); format: cell-based, Homo sapiens; conditions: for gene expression, CPP-P8 / P1: vs P1, RNA-seq; for number of NMD targets significantly changed by CPP-P8: hESCs (CHA15)
Experimental: For CPP-conjugated peptide delivery, HeLa, 293T, and PA-1 cells were incubated with CPP-conjugated peptides or CPP-FITC at 2 μM in DMEM with 10% FBS for 12 h a day before cell harvest. hPSCs were treated with CPP-conjugated peptides at 10 μM in mTeSR Plus Medium, […] The ROCK inhibitor (Tocris Bioscience, Y-27632) treated-hPSCs were dissociated into single cells using Accutase (Merck, SCR005) and differentiated into ectoderm, mesoderm, and endoderm using the STEMdiff Trilineage Differentiation Kit ([…] Technologies, 05230) following the manufacturer’s protocol. Differentiated cells treated with CPP-conjugated peptides were analysed at 0, 3, and 5 days for ectoderm and endoderm, and at 0, 3, and 4 days for mesoderm.
Total RNA concentration was calculated using Quant-IT RiboGreen (Invitrogen, R11490). To assess the integrity of the total RNA, samples were run on a TapeStation RNA screentape (Agilent). Only high-quality RNA preparations with RNA integrity number greater than 7.0 were used for the RNA library construction. A library was independently prepared with 1 μg of total RNA from each sample using the Illumina TruSeq Stranded mRNA Sample Prep Kit (Illumina, 20020594). The first step in the workflow involves purifying poly‐A-containing mRNA molecules using poly‐T‐attached magnetic beads. Following purification, mRNA was fragmented into small pieces using divalent cations at elevated temperatures. The cleaved RNA fragments were copied into first-strand cDNA using SuperScript II reverse transcriptase (Invitrogen, 18064022) and random primers. This was followed by second-strand cDNA synthesis using DNA polymerase I, RNase H, and dUTP. These cDNA fragments underwent an end repair process, adding a single ‘A’ base and ligating the adapters. The products were purified and enriched via PCR to create the final cDNA library. The libraries were quantified using the KAPA Library Quantification Kits for Illumina Sequencing platforms according to the qPCR Quantification Protocol Guide (KAPA BIOSYSTEMS, KR0405) and qualified using the TapeStation D1000 ScreenTape (Agilent). Indexed libraries were then submitted to an Illumina NovaSeq (Illumina), and Macrogen Inc. performed paired-end (2 × 100 bp) sequencing.
We pre-processed the raw reads from the sequencer to remove low-quality reads and adapter sequences before analysis and aligned the processed reads to Homo sapiens (GRCh37) using HISAT v2.1.0[52]. HISAT utilises two indices for alignment (a global whole-genome index and tens of thousands of small local indexes). These two types of indices are constructed using the same Burrows-Wheeler transform (BWT)/graph FM index (GFM) as Bowtie2. The reference genome sequence of Homo sapiens (GRCh37) and the annotation data were downloaded from the NCBI database. Transcript assembly was processed using StringTie v1.3.4d[53],[54]. […] Differentially expressed genes (DEGs) were analysed by ratio of FPKM or using DESeq2 with read counts. Log2 fold-change value of the NMD targets[25],[32], three germ layer markers, miRNA targets, or SDGs was converted into cumulative frequency curve using the R function, ‘ecdf’ (version 4.0.5). Gene functional classification and Gene ontology (GO) were performed using g:Profiler[56].

[2] = system: p-UPF1 (Thr28); assay: Western blot of p-UPF1 (Thr28) in CPP-peptide-treated hPSCs; format: cell-based, human; conditions: relative to CPP-P1 = 100, n = 3
Experimental: For CPP-conjugated peptide delivery, HeLa, 293T, and PA-1 cells were incubated with CPP-conjugated peptides or CPP-FITC at 2 μM in DMEM with 10% FBS for 12 h a day before cell harvest. hPSCs were treated with CPP-conjugated peptides at 10 μM in mTeSR Plus Medium, and the peptide-containing medium was changed every day over 10 days. The ROCK inhibitor (Tocris Bioscience, Y-27632) treated-hPSCs were dissociated into single cells using Accutase (Merck, SCR005) and differentiated into ectoderm, mesoderm, and endoderm using the STEMdiff Trilineage Differentiation Kit ([…] Technologies, 05230) following the manufacturer’s protocol. Differentiated cells treated with CPP-conjugated peptides were analysed at 0, 3, and 5 days for ectoderm and endoderm, and at 0, 3, and 4 days for mesoderm.
Protein samples were loaded for electrophoresis on sodium dodecyl sulphate (SDS) polyacrylamide gels, followed by Coomassie blue staining or transferred to nitrocellulose membranes (Cytiva) for WB. After blocking with 5% non-fat milk (Cellconic) in Tris-buffered saline with Tween-20 for 30 min at room temperature, the membranes were incubated with the following primary antibodies: anti-FLAG (GenScript, A00187; 1:2000), UPF1 (Cell Signaling Technology, 12040; 1:4000), UPF2 (Cell Signaling Technology, 11875; 1:2000), eIF4E (Cell Signaling Technology, 2067; 1:2000), β-actin (Sigma-Aldrich, A2228; 1:4000), GST (Cytiva, 27-4577-01; 1:2000), MYC (Calbiochem, OP10; 1:2000), Calnexin (Cell Signaling Technology, 2679; 1:4000), LIN28A (Cell Signaling Technology, 3978; 1:2000), pSer1096 phosphorylated UPF1 (1:2000)[58], or p-Thr28 phosphorylated UPF1 (ImmuQuest, IQ653; 1:2000). Primary antibodies were incubated overnight at 4 °C and then washed thrice with TBS-T, followed by incubation with secondary antibodies: Goat anti-Rabbit IgG (Invitrogen, 31460; 1:4000), Goat anti-Mouse IgG (Invitrogen, 31430; 1:4000), or Horse anti-Goat IgG (Vector Laboratories, PI-9500; 1:4000) for 1 h at room temperature. For pull-downed protein detection, all primary and secondary antibodies were diluted at 1:10,000. The blots were imaged using ChemiDoc XRS+ System (Bio-Rad) and the greyscale intensity values were quantified using Image Lab 3.0 software (Bio-Rad).
DAPI FITC Merge DAPI FITC Merge CHA15 H9 Pro2 H9
No peptide CPP-FITC Calnexin
For 2-day treatm ent For 4-day treatm ent […]
Student’s t-test was used. Data are presented as m ean values ± S.D (b) and mean values ± SEM (c and d). All statistical test us ed wer e two-s ided. T he m inim um num ber of independent biological replicate experim ents was a, b, and d n = 3, c n = 5. T he experim ents wer e conducted three tim es, each iteration producing consistent results. […]

Substance	gene expression, CPP-P8 / P1 ([1]; ACTC1)	gene expression, CPP-P8 / P1 ([1]; ACTN1)	gene expression, CPP-P8 / P1 ([1]; ADAR)	gene expression, CPP-P8 / P1 ([1]; ADM)	levels of the NMD targets ([1]; CHA15, 10 μM daily for 5 days)	transcripts with significant two-fold change ([1]; CHA15, 5 days, p < 0.05) [transcripts]	CAPN6 expression (dot plot) ([1]; CHA15, P8 vs P1 plot (Fig. 6d))	CDH6 expression (dot plot) ([1]; CHA15, P8 vs P1 plot (Fig. 6d))	CYP26A1 expression (dot plot) ([1]; CHA15, P8 vs P1 plot (Fig. 6d))	DLX5 expression (dot plot) ([1]; CHA15, P8 vs P1 plot (Fig. 6d))	number of NMD targets downregulated ([1]; CHA15, |Fc| > 1.2, P < 0.05, of 286 NMD targets) [transcripts]	number of NMD targets significantly changed by CPP-P8 ([1]; |Fc| > 1.2, p < 0.05)	NMD targets commonly regulated with UPF1- and LIN28A-depletion ([1]; hPSCs, over 1.2-fold) [NMD targets]	transcripts commonly regulated with UPF1- and LIN28A-depletion ([1]; hPSCs, over 1.2-fold) [transcripts]	p-UPF1 (Thr28)/Calnexin, mean ([2]; CHA15, 2-day treatment) [%]	p-UPF1 (Thr28)/Calnexin, mean ([2]; H9, 2-day treatment) [%]	p-UPF1 (Thr28)/Calnexin, mean ([2]; H9, 4-day treatment) [%]	p-UPF1 (Thr28)/Calnexin, mean ([2]; Pro2, 2-day treatment) [%]	NMD targets as share of significantly changed genes ([1]; hPSCs) [%]	number of transcripts significantly regulated ([1]; hPSCs, |Fc| > 1.2, p < 0.05) [transcripts]
KKKWCRKKKSSADEKRYRALKRTAERELLMNA [CPP-P8, CPP conjugated to P8]	-1.36	-1.23	-1.28	-2.99	efficiently depressed the levels of the NMD targets	69	0.9142	0.924	1.759	0.5911	32	51	10	230	–	–	–	–	–	–
KKKWCRKKKSSADEKRYRALKRTAERELLMNA [P8]	–	–	–	–	–	–	–	–	–	–	–	51	–	–	277	91	183	250	2.3	2196
N-QKLDQKELQLEPM-C [P1, reference compound]	–	–	–	–	–	–	–	–	–	–	–	–	–	–	100	100	100	100	–	–
